The test system of this assay is human mammary carcinoma (MX-1). The assay can be described thus: Efficacy against subcutaneous human mammary carcinoma (MX-1) xenograft in nude mice. Type of assay: in vivo. From the text: General Procedures. All reactions were run under an atmosphere of dry nitrogen or argon. Commercial reagents were used without further purification. All PEG compounds were 40 kDa and were dried under vacuum or by azeotropic distillation from toluene prior to use. ^13C NMR spectra were obtained at 75.46 MHz using a Varian Mercurye® 300 NMR spectrometer and deuterated chloroform as the solvent unless otherwise specified. Chemical shifts (δ) are reported in parts per million (ppm) downfield from tetramethylsilane (TMS). All PEG conjugated compounds were dissolved in saline for injection prior to in vivo drug treatments and were given as their camptothecin equivalents (absolute amount of camptothecin given). HPLC method. The reaction mixtures and the purity of intermediates and final products were monitored by a Beckman Coulter System Gold® HPLC instrument employing a ZOBAXO® 300 SB C-8 reversed phase column (150×4.6 mm) or a Phenomenex Jupiter® 300A C18 reversed phase column (150×4.6 mm) with a multiwavelength UV detector, using a gradient of 30-90% of acetonitrile in 0.5% trifluoroacetic acid (TFA) at a flow rate of 1 mL/min.
The efficacy of open-form camptothecin analogs against a subcutaneous human mammary carcinoma (MX-1) grown in nude mice was determined as follows. Following at least one week of acclimation, tumors were established by implanting small tumor fragments from donor mice into a single subcutaneous site, on the left axillary flank region of nude mice. The tumor implantation site was observed twice weekly and measured once palpable. The tumor volume for each mouse was determined by measuring two dimensions with calipers and calculated using the formula: tumor volume=(length×width^2). When tumors reached the average volume of approximately 75 mm^3, the mice were divided into their experimental groups, which consists of untreated controls, PEG40,000-ala-20(S)-Camptothecin, compound 8, and compound 18.
The mice were sorted to evenly distribute tumor size, grouped into 4 to 5 mice/cage, and ear punched for permanent identification. Drugs were dosed intravenously via the tail vein as a single dose (Qd1). Mouse weight and tumor sizes were measured at the beginning of study and twice weekly through week 5. The overall growth of tumors was calculated as the mean tumor volume at one week following the end of the treatment. A percent treatment over control (T/C) value was also calculated when the control group's median tumor size reached approximately 800-1100 mm^3 and again at one week following treatment. The T/C value in percent is a non-quantitative indication of anti-tumor effectiveness.
A general note: A xenograft is tissue or cells of one species grown in another, often human tumour cells in immunodeficient mice.

For the substance PEG40,000-ala-20(S)-Camptothecin, under “at equivalent doses”, the “Difference in antitumor activity between the three compounds” value was “no significant (P<0.05) difference in the antitumor activity”. Also, the “Tumor Regression at Day 25 (#/grp)” value (i.v. Qd1 (24 mg/kg/dose), Day 25) is given as 5/5. Further, the “T/C (%) At 1000 mm^3” value (i.v. Qd1 (24 mg/kg/dose), median tumor volume treated vs control when control median reached approx. 1000 mm^3, T/C < 42% considered significant) was 1.4%. The “Tumor volume as compared to control mice” value (i.v. single dose, statistical comparison, P<0.05) is recorded as “significantly (P<0.05) smaller tumor volumes”. For the same substance, the “Tumor Volume (mean ± sem) Day 21” value (intravenous single dose Qd1 (24 mg/kg/dose, camptothecin equivalents), established tumors ~75 mm^3, Day 21) came out at 15 ± 5 mm^3.
